{
  "source": "patent US20230346827A1",
  "about": "(priority 2020, published 2023)",
  "key": {"[1]": {"target": "oligomeric amyloid-β / PrP^c interaction (Homo sapiens, UniProt P04156)", "format": "binding"}, "[2]": {"test_system": "Human trabecular meshwork cells", "experiment": "Fibronectin immunofluorescence in TGFβ2-stimulated trabecular meshwork cells", "format": "cell-based", "conditions": "TGFβ2 1.0 ng/ml + LMW-DS 4.0 µM, 72 hours", "protocol": "Human trabecular meshwork cells (TMC-6590; ScienCell Research Laboratories, Carlsbad, CA) were cultured in TMC (6591; ScienCell Research Laboratories) complete medium and maintained at 37° C. in 5% CO2 until reaching 80-90% confluency. Cells were plated at densities of 5000-10000 cells per well in Greiner-Bio Cell 96 Well black Cell Culture Microplates (655090, Sigma) and left to adhere overnight. The following day cells were treated with TGFβ2 (1.0 ng/ml; Preprotech) and/or LMW-DS (4.0 µM; Tikomed AB) under serum free conditions for 72 hrs.\nAfter 72 hrs treatments, cells were fixed using 4% PFA in PBS (28908, Thermo Fisher Scientific) for 10 minutes, washed with PBS and then washed with PBS containing saponin-based permeabilization buffer (00-8333-56, Thermo Fisher Scientific). Cells were then immunostained with anti-human Fibronectin Alexa Fluor® 488 (53-9869-82, Thermo Fisher Scientific) and nuclear stain Hoeschst 33342 (H21492, Thermo Fisher Scientific) in permeabilizing buffer in the dark for 1 hr at room temperature. […] Images were analyzed using the Yokogawa image analysis software."}, "human purified monocytes": {"test_system": "human purified monocytes", "experiment": "Stimulated IL-6 release from human purified monocytes (ELISA)", "format": "cell-based", "conditions": "24 h, LMW-DS 60-600 µg/ml, heparin 2.0-20 µg/ml, dexamethasone 3.0 µM", "protocol": "Peripheral blood mononuclear cells (PBMC) were isolated from healthy donors through Ficoll-Paque PLUS (GE Healthcare; 11778538) density centrifugation. Monocytes were purified using the EasySep™ human monocyte enrichment kit (StemCell) that purifies monocytes ‘untouched’ to maintain their phenotype.\nMonocytes were cultured in the absence (unstimulated PBS vehicle controls) or presence of stimulation (LPS or peptidoglycan) in the absence (vehicle) or presence of LMW-DS (Tikomed AB, Viken, Sweden, WO 2016/076780; three concentrations; top concentration 600 µg/ml, 200 µg/ml and 60 µg/ml), heparin (2.0, 6.0 or 20 µg/ml; equivalent to 0.406, 1.218 and 4.06 units/ml; Sigma Aldrich) or dexamethasone (3.0 µM; Sigma Aldrich) for 24 hours at 37° C., 5% CO2. Following centrifugation, cell culture supernatants were removed and stored at -20° C. awaiting analysis for IL-6 by ELISA. Levels of IL-6 were quantified in the supernatant by ELISA (R&D systems) according to manufacturer’s instructions."}, "human PBMC": {"test_system": "human PBMC", "experiment": "Stimulated cytokine release from human PBMC (5-plex Luminex: IFNγ, IL-8, TNFα, IL-1β, IL-10)", "format": "cell-based", "protocol": "Example 9 investigated the ability of LMW-DS to modify the secretion of IL-6 from human PBMC arising from the use of various stimuli. The present study performed a broader analysis of the cell culture supernatants arising from Example 9. Thus, peripheral blood mononuclear cells (PBMC) were isolated from healthy donors through Ficoll-Paque PLUS density centrifugation. The PBMC were cultured at 2×10^5 cells/well in the absence (unstimulated PBS vehicle controls) or presence of stimulation (LPS, peptidoglycan, pokeweed mitogen, PHA-L, CpG + IL-15, or Cytostim) in the absence (vehicle) or presence of LMW-DS (Tikomed AB, Viken, Sweden, WO 2016/076780; three concentrations; top concentration 600 µg/ml, 200 µg/ml and 60 µg/ml) for 24 hours at 37° C., 5% CO2.\nAccordingly, the treatments were as follows for each PBMC donor: • i. Vehicle • ii. Simulation • iii. Stimulation + LMW-DS (60 µg/ml) • iv. Stimulation + LMW-DS (200 µg/ml) • v. Stimulation + LMW-DS (600 µg/ml) with each assessed in triplicate such that the total numbers of samples were: • 1. LPS; 165 samples (from 11 donors) • 2. Peptidoglycan from B. subtilis; 90 samples (from 6 donors) • 3. PHA-L; 90 samples (from 6 donors) • 4. 0.2 µM CpG + IL-15; 90 samples (from 6 donors) • 5. 1.0 µM CpG + IL-15; 90 samples (from 6 donors) • 6. Pokeweed mitogen; 90 samples (from 6 donors) • 7. 10 µl/ml Cytostim; 90 samples (from 6 donors) • 8. 30 µl/ml Cytostim; 90 samples (from 6 donors)\nFollowing treatment, cell culture supernatants were removed, centrifuged and stored at -20° C. before thawing for multiplex analysis of various cytokines using the 5-plex human magnetic Luminex assay from R&D systems (Cat. No. LXSAHM-05). Luminex analysis was carried out exactly following manufacturer’s protocols."}, "[3]": {"target": "T1, SARS-CoV-2 spike protein - ACE2 interaction (Severe acute respiratory syndrome coronavirus 2, UniProt P0DTC2)", "T1 construct": "purchased RayBio CoV-SACE2", "experiment": "RayBio COVID-19 Spike-ACE2 binding assay kit (ELISA)", "set-up": "species or system SARS-CoV-2 / human", "conditions": "LMW-DS 3.0 to 600 µg/ml", "protocol": "The RayBio® COVID-19 Spike-ACE2 binding assay kit (cat. number CoV-SACE2) was used as per the manufacturer’s instructions (ver 1.6) to assess the ability of LMW-DS to disrupt the interaction between SARS-CoV-2 spike protein and ACE2.\nLMW-DS (ILB®, Tikomed AB, Viken, Sweden, WO 2016/076780) in saline was added in concentrations ranging from […] to 600 µg/ml."}, "SARS-CoV-2": {"test_system": "SARS-CoV-2", "conditions": "incubation of SARS-CoV-2 with exogenous LMW-DS; cited from earlier work"}, "[4]": {"conditions": "LPS, highest concentration of LMW-DS"}},
  "data": [
    {"substance": "sodium salt of dextran sulfate [LMW-DS]", "values": [
      {"measurement": "Competable binding (%)", "setting": "[1]", "value": "85±4", "unit": "%"},
      {"measurement": "Hill coefficient", "setting": "[1]", "value": "1.00±0.21"},
      {"measurement": "IC50", "setting": "[1]", "value": "0.42 ± 0.16", "unit": "µg/mL"},
      {"measurement": "fibronectin levels (quantification of fibronectin staining)", "setting": "[2]", "value": "1136 ± 155"},
      {"measurement": "LPS-stimulated IL-6 release", "setting": "human purified monocytes; LPS 0.01 ng/ml", "value": "concentration dependent statistically significant inhibition"},
      {"measurement": "peptidoglycan-stimulated IL-6 release", "setting": "human purified monocytes; peptidoglycan 30 ng/ml", "value": "concentration dependent statistically significant increase"},
      {"measurement": "IL-8 secretion response", "setting": "human PBMC; CpG + IL-15", "value": "little impact"},
      {"measurement": "IL-10 secretion", "setting": "human PBMC; Cytostim", "value": "concentration dependent large reduction"},
      {"measurement": "secretion of IFNγ, IL-1β, IL-8, TNFα", "setting": "human PBMC; Cytostim", "value": "small reductions"},
      {"measurement": "IFNγ secretion", "setting": "human PBMC; LPS, LMW-DS 60-600 µg/ml", "value": "concentration dependent but small reduction"},
      {"measurement": "IL-10 secretion", "setting": "human PBMC; LPS, LMW-DS 60-600 µg/ml", "value": "concentration dependent but small reduction"},
      {"measurement": "IL-1β secretion", "setting": "human PBMC; [4]", "value": "modest reduction"},
      {"measurement": "IL-8 secretion", "setting": "human PBMC; [4]", "value": "modest reduction"},
      {"measurement": "TNFα secretion", "setting": "human PBMC; [4]", "value": "modest reduction"},
      {"measurement": "IFNγ release", "setting": "human PBMC; PHA-L", "value": "small decreases"},
      {"measurement": "IL-8 release", "setting": "human PBMC; PHA-L", "value": "small decreases"},
      {"measurement": "IL-10 secretion", "setting": "human PBMC; PHA-L", "value": "large, concentration dependent decrease"},
      {"measurement": "TNFα release", "setting": "human PBMC; PHA-L", "value": "small decreases"},
      {"measurement": "IL-1β secretion", "setting": "human PBMC; peptidoglycan", "value": "increases"},
      {"measurement": "TNFα secretion", "setting": "human PBMC; peptidoglycan", "value": "increases"},
      {"measurement": "general reduction in cytokine release", "setting": "human PBMC; peptidoglycan, LMW-DS up to 600 µg/ml", "value": "little evidence"},
      {"measurement": "IL-10 secretion", "setting": "human PBMC; pokeweed mitogen", "value": "concentration-dependent decrease"},
      {"measurement": "secretion of IFNγ, IL-1β, IL-8, TNFα", "setting": "human PBMC; pokeweed mitogen", "value": "not impacted generally"},
      {"measurement": "SARS-CoV-2 spike protein - ACE2 interaction", "setting": "[3]", "value": "concentration dependent disruption"},
      {"measurement": "viral replication within ex vivo human lung tissue explants", "setting": "SARS-CoV-2", "value": "reduced viral replication"}
    ]}
  ]
}
